Tests used:
α-Gal A [1] = molecular target: T1, α-Gal A (Homo sapiens, UniProt P06280); settings: 10 mM Tris vs 0 mM Tris
T1 sequence (P06280 32-429): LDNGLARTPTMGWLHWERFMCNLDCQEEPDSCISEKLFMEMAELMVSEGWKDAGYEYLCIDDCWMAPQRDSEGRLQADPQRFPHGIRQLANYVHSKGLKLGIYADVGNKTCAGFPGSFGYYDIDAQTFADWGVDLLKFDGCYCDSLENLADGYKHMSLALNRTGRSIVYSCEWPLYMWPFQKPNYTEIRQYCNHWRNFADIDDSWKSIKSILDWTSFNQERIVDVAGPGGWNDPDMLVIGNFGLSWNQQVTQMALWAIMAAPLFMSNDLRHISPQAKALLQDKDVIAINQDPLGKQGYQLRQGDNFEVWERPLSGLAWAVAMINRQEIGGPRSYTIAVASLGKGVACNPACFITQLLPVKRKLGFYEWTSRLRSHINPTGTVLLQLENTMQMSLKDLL
Experimental: FIG. 1 depicts Thermal Stability curves of α-Gal A at 0 mM (blue) and 10 mM (red) Tris buffer.

α-Gal A [2] = molecular target: T1, α-Gal A; settings: buffer comprising Tris at 150 mM

α-Gal A thermal stability increase (α-Gal A [1]): 3 °C | elution of α-Gal A from the affinity resin (α-Gal A [2]): effectively eluted
Compound: NC(CO)(CO)CO [Tris, tris(hydroxymethyl)aminomethane]

Reference: US11685912B2, “Affinity purification of glycosidase-cleaving enzymes” (TAKEDA PHARMACEUTICAL COMPANY LIMITED, priority 2018, dated 2023)
